Source: ChEMBL document CHEMBL1201862, “PubChem BioAssay data set” (2004)
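48-hour exposure; five concentrations; linearly interpolated endpoints. At the GI50, growth is halved.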 The source made the active and inactive calls. Rule as the data show it: active = GI50 up to about 1.1 µM and inactive = higher.

Key:
Test in all cases: NCI anticancer screen, dose series, 48 h
BT-549 = test system: BT-549
A498 = test system: A498
MDA-MB-231 = test system: MDA-MB-231
SF-295 = test system: SF-295
NCI-H23 = test system: NCI-H23
A549 = test system: A549
SR = test system: SR
NCI-H460 = test system: NCI-H460
MOLT-4 = test system: MOLT-4
OVCAR-8 = test system: OVCAR-8
OVCAR-3 = test system: OVCAR-3
UACC-62 = test system: UACC-62
HCT-15 = test system: HCT-15
SW-620 = test system: SW-620
K562 = test system: K562
EKVX = test system: EKVX
IGROV-1 = test system: IGROV-1
SF-268 = test system: SF-268
SNB-75 = test system: SNB-75
SF-539 = test system: SF-539

Measured: GI50

NC(Cc1ccccc1)P(=O)(O)O (centres undefined)
inactive: BT-549 > 100 µM | A498 > 100 µM | MDA-MB-231 > 100 µM | SF-295 > 100 µM | NCI-H23 > 100 µM | A549 > 100 µM | SR > 100 µM | NCI-H460 > 100 µM | MOLT-4 > 100 µM | OVCAR-8 > 100 µM | OVCAR-3 > 100 µM | UACC-62 > 100 µM | SW-620 > 100 µM | K562 > 100 µM | EKVX > 100 µM | IGROV-1 > 100 µM | SF-268 > 100 µM
> 100 µM: HCT-15

O=c1c2ccccc2c2ccccc2c(=O)n1-c1cc2c3ccccc3ccc2c2ccccc12
inactive: BT-549 > 100 µM | A498 > 100 µM | MDA-MB-231 > 100 µM | SF-295 > 100 µM | NCI-H23 > 100 µM | A549 > 100 µM | NCI-H460 > 100 µM | OVCAR-8 > 100 µM | OVCAR-3 > 100 µM | UACC-62 > 100 µM | SNB-75 > 100 µM | SW-620 > 100 µM | SF-539 > 100 µM | EKVX > 100 µM | IGROV-1 > 100 µM | SF-268 > 100 µM
> 100 µM: HCT-15

CCC1(c2ccc(OC)c(OC)c2)CCN(S(=O)(=O)c2ccc(C)cc2)C1 (centres undefined)
> 100 µM: HCT-15
inactive: BT-549 > 100 µM | MDA-MB-231 > 100 µM | SF-295 > 100 µM | NCI-H23 > 100 µM | A549 62.8 µM | SR > 10 µM | NCI-H460 64 µM | MOLT-4 19.2 µM | OVCAR-3 > 100 µM | UACC-62 > 100 µM | SNB-75 > 100 µM | SW-620 > 100 µM | SF-539 > 100 µM | K562 > 10 µM | EKVX > 100 µM | IGROV-1 > 100 µM | SF-268 > 100 µM

O=S(=O)(Nc1nc2ccccc2nc1Nc1cccc2ccccc12)c1ccccc1
inactive: BT-549 10.4 µM | MDA-MB-231 13.6 µM | SF-295 6.17 µM | NCI-H23 5.53 µM | A549 7.35 µM | SR > 100 µM | NCI-H460 4.41 µM | OVCAR-8 20.7 µM | OVCAR-3 4.67 µM | UACC-62 8.59 µM | SNB-75 15.5 µM | SW-620 25.8 µM | SF-539 44.9 µM | K562 > 100 µM | EKVX 8.97 µM | IGROV-1 5.9 µM | SF-268 26.5 µM

CC1(C)C(=O)C2(C#N)CCC1C2 (centres undefined)
inactive: BT-549 > 100 µM | A498 > 100 µM | MDA-MB-231 > 100 µM | SF-295 > 100 µM | NCI-H23 > 100 µM | A549 > 100 µM | NCI-H460 > 100 µM | MOLT-4 > 100 µM | OVCAR-8 > 100 µM | OVCAR-3 > 100 µM | UACC-62 > 100 µM | SNB-75 > 84.7 µM | SW-620 > 100 µM | SF-539 > 100 µM | K562 > 100 µM | EKVX > 100 µM | IGROV-1 > 100 µM | SF-268 > 100 µM
> 100 µM: HCT-15

CCN(CC)Cc1cc(Nc2ccnc3ccc4c(nnn4C)c23)ccc1O
inactive: BT-549 18.8 µM | MDA-MB-231 17.2 µM | SF-295 12.7 µM | NCI-H23 11.5 µM | A549 12.2 µM | SR 4.13 µM | NCI-H460 3.42 µM | MOLT-4 3.86 µM | OVCAR-8 16.1 µM | OVCAR-3 19.3 µM | UACC-62 15 µM | SNB-75 5.89 µM | SF-539 5.33 µM | K562 5.24 µM | EKVX 26.7 µM | IGROV-1 15.4 µM | SF-268 10.2 µM
3.67 µM: HCT-15

COc1ccc(-c2cc(=O)c3c(O)cc(C)cc3o2)cc1OC
inactive: BT-549 > 100 µM | MDA-MB-231 > 100 µM | SF-295 > 100 µM | NCI-H23 > 100 µM | A549 > 100 µM | SR > 100 µM | NCI-H460 > 100 µM | MOLT-4 > 100 µM | OVCAR-3 > 100 µM | UACC-62 > 100 µM | SNB-75 67.1 µM | SW-620 > 100 µM | SF-539 > 100 µM | K562 > 100 µM | EKVX > 100 µM | IGROV-1 > 100 µM | SF-268 > 100 µM
> 100 µM: HCT-15

NCCCCCNOCCCN
> 100 µM: HCT-15
inactive: BT-549 > 100 µM | MDA-MB-231 > 100 µM | SF-295 > 100 µM | NCI-H23 > 100 µM | A549 > 100 µM | SR > 100 µM | NCI-H460 > 100 µM | MOLT-4 > 100 µM | OVCAR-8 > 100 µM | OVCAR-3 > 100 µM | UACC-62 > 100 µM | SNB-75 63.1 µM | SW-620 > 100 µM | SF-539 > 100 µM | K562 > 100 µM | EKVX > 100 µM | IGROV-1 > 100 µM | SF-268 > 100 µM

CC1=CC(=O)/C(=C/n2c(=S)[nH]c3ccccc32)C(=O)O1
inactive: BT-549 > 100 µM | A498 > 100 µM | MDA-MB-231 > 100 µM | SF-295 > 100 µM | NCI-H23 > 100 µM | A549 > 100 µM | NCI-H460 > 100 µM | MOLT-4 > 100 µM | OVCAR-8 > 100 µM | OVCAR-3 > 100 µM | UACC-62 > 100 µM | SNB-75 35.7 µM | SW-620 > 100 µM | SF-539 > 100 µM | K562 > 100 µM | EKVX 76.4 µM | IGROV-1 > 100 µM | SF-268 > 100 µM
> 100 µM: HCT-15

O=C(Oc1c(I)ccccc1=O)c1ccc([N+](=O)[O-])cc1
inactive: BT-549 18.6 µM | MDA-MB-231 23.3 µM | SF-295 23.2 µM | NCI-H23 42.4 µM | A549 21.6 µM | SR 4.34 µM | NCI-H460 11.4 µM | OVCAR-8 22.3 µM | OVCAR-3 13.6 µM | UACC-62 22.6 µM | SW-620 30.1 µM | SF-539 17.9 µM | K562 24.2 µM | EKVX 12.4 µM | IGROV-1 14.9 µM | SF-268 15.5 µM
active: A498 0.409 µM
12.9 µM: HCT-15

CCOC(=O)C(Cc1ccccc1)(Cc1ccc(O)cn1)NC(=O)c1ccccc1 (centres undefined)
19.7 µM: HCT-15
inactive: BT-549 30.1 µM | MDA-MB-231 28.1 µM | SF-295 27.3 µM | NCI-H23 32.8 µM | A549 27.2 µM | SR 6.56 µM | NCI-H460 27.4 µM | MOLT-4 27.9 µM | OVCAR-8 31.6 µM | OVCAR-3 19.2 µM | UACC-62 16.7 µM | SNB-75 21.6 µM | SW-620 29.6 µM | SF-539 23.8 µM | K562 29.7 µM | EKVX 25.9 µM | IGROV-1 22.6 µM | SF-268 17.7 µM

COCC12CCC(OC)C34C5CC6(O)C(OC)CC(OC(C)=O)(C5C6OC(=O)c5ccccc5)C(C(OC)C13)C4N(C)C2 (centres undefined)
inactive: BT-549 > 100 µM | A498 > 100 µM | MDA-MB-231 > 100 µM | SF-295 > 100 µM | NCI-H23 > 100 µM | A549 > 100 µM | SR 85.3 µM | NCI-H460 > 100 µM | MOLT-4 > 100 µM | OVCAR-8 > 100 µM | OVCAR-3 > 100 µM | UACC-62 > 100 µM | SW-620 > 100 µM | SF-539 > 100 µM | EKVX > 100 µM | IGROV-1 > 100 µM | SF-268 > 100 µM
> 100 µM: HCT-15

CO[C@]12C#CC=CC#C[C@@H](O)[C@]3(CCC1)O[C@@]23c1cccc(O)c1
> 100 µM: HCT-15
inactive: BT-549 > 100 µM | A498 > 100 µM | MDA-MB-231 > 100 µM | SF-295 > 100 µM | NCI-H23 > 100 µM | A549 > 100 µM | NCI-H460 > 100 µM | MOLT-4 54.8 µM | OVCAR-8 > 100 µM | OVCAR-3 > 100 µM | UACC-62 52.6 µM | SNB-75 > 100 µM | SW-620 > 100 µM | K562 97.3 µM | SF-268 > 100 µM

CN(C)CCNc1nc(-c2ccc3ccccc3c2)nc2[nH]cnc12
inactive: BT-549 11.2 µM | MDA-MB-231 11.2 µM | SF-295 13.7 µM | NCI-H23 11.7 µM | A549 12.5 µM | SR 2.88 µM | NCI-H460 3.66 µM | MOLT-4 3.55 µM | OVCAR-8 10.8 µM | OVCAR-3 7.64 µM | UACC-62 10.8 µM | SW-620 11.4 µM | K562 21.1 µM | EKVX 4.55 µM | IGROV-1 2.31 µM | SF-268 8.22 µM
5.82 µM: HCT-15
active: SNB-75 1.1 µM

COP(=O)(OC)OCN(C)CC/C=C(\C)CC/C=C(\C)CCC=C(C)C
16 µM: HCT-15
inactive: BT-549 16.4 µM | A498 > 100 µM | MDA-MB-231 20.2 µM | SF-295 16.6 µM | NCI-H23 17.2 µM | A549 16.9 µM | NCI-H460 11.7 µM | MOLT-4 13.6 µM | OVCAR-8 16 µM | OVCAR-3 15.3 µM | SNB-75 14.8 µM | SW-620 15.6 µM | SF-539 15.7 µM | K562 6.21 µM | EKVX 29.2 µM | IGROV-1 12.5 µM | SF-268 16.4 µM

Cc1cc(C)n(-c2nc(C)c(CCO)c(=O)[nH]2)n1
> 100 µM: HCT-15
inactive: BT-549 > 100 µM | MDA-MB-231 > 100 µM | SF-295 > 100 µM | NCI-H23 > 100 µM | A549 > 100 µM | SR > 100 µM | NCI-H460 > 100 µM | MOLT-4 > 100 µM | OVCAR-8 > 100 µM | OVCAR-3 > 100 µM | UACC-62 > 100 µM | SNB-75 97.5 µM | SW-620 > 100 µM | SF-539 > 100 µM | K562 > 100 µM | EKVX > 100 µM | IGROV-1 > 100 µM | SF-268 > 100 µM
